Laboratory results taken from patent US20100168102A9, “Amide Derivatives as Kinase Inhibitors” (Devgen NV, priority 2005, published 2010).

What follows are compounds tested against T1, PKC epsilon (Homo sapiens, UniProt Q02156) (assay: Biochemical assay for PKC epsilon (fluorescence polarization, Protein Kinase C Assay Kit, Red)). Conditions: Table 2, compounds of Formula XIII; read-out: IC50 μM PKCε.
T1 construct: purchased Invitrogen P2282
T1 sequence (Q02156 1-737): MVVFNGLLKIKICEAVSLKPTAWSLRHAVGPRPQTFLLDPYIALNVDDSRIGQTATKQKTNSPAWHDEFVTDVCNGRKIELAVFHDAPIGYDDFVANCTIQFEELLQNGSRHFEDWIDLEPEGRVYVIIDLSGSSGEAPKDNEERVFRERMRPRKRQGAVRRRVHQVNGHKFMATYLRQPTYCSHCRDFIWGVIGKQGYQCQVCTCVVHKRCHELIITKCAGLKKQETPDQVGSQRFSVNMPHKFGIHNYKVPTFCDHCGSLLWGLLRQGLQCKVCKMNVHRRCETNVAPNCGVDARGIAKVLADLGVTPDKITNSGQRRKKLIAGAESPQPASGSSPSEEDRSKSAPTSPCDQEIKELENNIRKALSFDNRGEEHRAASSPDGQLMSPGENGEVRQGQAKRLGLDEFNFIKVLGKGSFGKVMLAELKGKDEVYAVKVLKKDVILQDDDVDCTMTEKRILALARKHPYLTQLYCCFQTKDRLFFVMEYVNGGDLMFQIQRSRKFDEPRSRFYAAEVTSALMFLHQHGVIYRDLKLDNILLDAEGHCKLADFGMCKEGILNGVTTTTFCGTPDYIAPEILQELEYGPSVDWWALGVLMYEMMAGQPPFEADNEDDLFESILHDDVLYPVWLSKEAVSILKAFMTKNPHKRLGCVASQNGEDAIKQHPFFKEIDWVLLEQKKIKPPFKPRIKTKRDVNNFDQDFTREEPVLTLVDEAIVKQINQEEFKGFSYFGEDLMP
Experimental: The compounds were tested for inhibition of PKC epsilon.
The inhibition assays were performed with a fluorescence polarization (FP) assay using the commercially available Protein Kinase C Assay Kit, Red, from Invitrogen (Product ID. No. P2941), essentially in accordance with the protocol supplied by the manufacturer. […] The isozyme PKC epsilon was also obtained from Invitrogen (Product ID No. P2282).
Staurosporine was used as a positive control (2 μM).
To perform the assay, 2 μl of a solution of the compound to be tested in DMSO (at each concentration) was added to 6 μl of a solution of the enzyme in 10 mM HEPES, 5 mM dithiotreitol, 0.1% Triton X-100, pH 7.4. The final concentration of the enzymes was 10 ng/ml.
After incubating for 30 minutes at room temperature, 4 μl of a mixture of ATP and the protein substrate in 60 mM HEPES (pH7.4), 15 mM MgCl2, 0.3 mM CaCl2, 0.06% NP40 was added.
After incubating for 80 minutes at room temperature, 3 μl of a mix solution of 500 mM EDTA (stop solution) and the Rhodamine-based PKC Red Tracer (from the Protein Kinase C Assay Kit) in BGG/phosphate buffer (pH7.4) with 0.02% NaN3 and 0.1% Triton X-100 was added and 5 μl of a the Anti-Phosphoserine antibody (also from the Protein Kinase C Assay Kit) in BGG/phosphate buffer (pH7.4) with 0.02% NaN3.
The results were fitted to a curve using the XL-Fit algorithm and […] were calculated for each fitted curve, again using the XL-Fit algorithm.

Compared with “4-(1-Amino-2-{[1-(4-chloro-phenyl)- cyclobutanecarbonyl]-amino}-ethyl)- N-pyridin-4-yl-benzamide [Compound 337]”, “4-(1-Amino-2-{[1-(4-fluoro-phenyl)- cyclobutanecarbonyl]-amino}-ethyl)- N-pyridin-4-yl-benzamide [Compound 338]” is lower in IC50: 0.05 to 0.5 µM for the first, < 0.05 µM for the second.

First: 4-(1-Amino-2-{[1-(4-fluoro-phenyl)- cyclohexanecarbonyl]-amino}-ethyl)- N-pyridin-4-yl-benzamide [Compound 343]
Second: 7-Fluoro-indan-1-carboxylic acid {2- amino-2-[4-(pyridin-4-ylcarbamoyl)- phenyl]-ethyl}-amide [Compound 353]
The IC50 of the first is lower: < 0.05 µM for the first, 0.05 to 0.5 µM for the second. The first is the more potent here.

`NC(CNC(=O)Cc1ccccc1)c1ccc(C(=O)Nc2ccncc2)cc1` (stereo not drawn) [Compound 328, 4-(1-Amino-2-phenylacetylamino-ethyl)-N-pyridin-4-yl-benzamide] and `NC(CNC(=O)Cc1ccc(Cl)c(Cl)c1)c1ccc(C(=O)Nc2ccncc2)cc1` (stereo not drawn) [Compound 329, 4-{1-Amino-2-[2-(3,4-dichloro-phenyl)-acetylamino]-ethyl}-N-pyridin-4-yl-benzamide] fall in the same range of IC50: 0.05 to 0.5 µM for the first, 0.05 to 0.5 µM for the second.

First: NC(CNC(=O)Cc1ccc(F)c(Cl)c1)c1ccc(C(=O)Nc2ccncc2)cc1 (stereo not drawn) [Compound 330, 4-{1-Amino-2-[2-(3-chloro-4-fluoro-phenyl)-acetylamino]-ethyl}-N-pyridin-4-yl-benzamide]
Second: NC(CNC(=O)Cc1cc(F)ccc1F)c1ccc(C(=O)Nc2ccncc2)cc1 (stereo not drawn) [Compound 331, 4-{1-Amino-2-[2-(2,5-difluoro-phenyl)-acetylamino]-ethyl}-N-pyridin-4-yl-benzamide]
The IC50 of the first is lower: 0.05 to 0.5 µM for the first, 0.5 to 5 µM for the second. The first is the more potent here.

`NC(CNC(=O)Cc1ccc(F)cc1Cl)c1ccc(C(=O)Nc2ccncc2)cc1` (stereo not drawn) [Compound 332, 4-{1-Amino-2-[2-(2-chloro-4-fluoro-phenyl)-acetylamino]-ethyl}-N-pyridin-4-yl-benzamide] and `NC(CNC(=O)Cc1ccc(Cl)cc1F)c1ccc(C(=O)Nc2ccncc2)cc1` (stereo not drawn) [Compound 333, 4-{1-Amino-2-[2-(4-chloro-2-fluoro-phenyl)-acetylamino]-ethyl}-N-pyridin-4-yl-benzamide] fall in the same range of IC50: 0.05 to 0.5 µM for the first, 0.05 to 0.5 µM for the second.

`CCC(CC)(C(=O)NCC(N)c1ccc(C(=O)Nc2ccncc2)cc1)c1ccccc1` (stereo not drawn) [Compound 334, 4-[1-Amino-2-(2-ethyl-2-phenyl-butyrylamino)-ethyl]-N-pyridin-4-yl-benzamide] and `NC(CNC(=O)C1(c2ccc(F)cc2)CCCC1)c1ccc(C(=O)Nc2ccncc2)cc1` (stereo not drawn) [Compound 336, 4-(1-Amino-2-{[1-(4-fluoro-phenyl)-cyclopentanecarbonyl]-amino}-ethyl)-N-pyridin-4-yl-benzamide] cannot be ordered by IC50: < 0.05 µM for the first, < 0.05 µM for the second.

First: NC(CNC(=O)C1(c2cccc(F)c2)CCCC1)c1ccc(C(=O)Nc2ccncc2)cc1 (stereo not drawn) [Compound 341, 4-(1-Amino-2-{[1-(3-fluoro-phenyl)-cyclopentanecarbonyl]-amino}-ethyl)-N-pyridin-4-yl-benzamide]
Second: NC(CNC(=O)C1(c2ccc(F)cc2Cl)CCCC1)c1ccc(C(=O)Nc2ccncc2)cc1 (stereo not drawn) [Compound 342, 4-(1-Amino-2-{[1-(2-chloro-4-fluoro-phenyl)-cyclopentanecarbonyl]-amino}-ethyl)-N-pyridin-4-yl-benzamide]
The IC50 of the first is higher: 0.05 to 0.5 µM for the first, < 0.05 µM for the second. The second is the more potent here.

`NC(CNC(=O)C1CCCc2ccccc21)c1ccc(C(=O)Nc2ccncc2)cc1` (stereo not drawn) [Compound 350, 1,2,3,4-Tetrahydro-naphthalene-1-carboxylic acid {2-amino-2-[4-(pyridin-4-ylcarbamoyl)-phenyl]-ethyl}-amide] and `NC(CNC(=O)C1CCc2ccccc21)c1ccc(C(=O)Nc2ccncc2)cc1` (stereo not drawn) [Compound 351, Indan-1-carboxylic acid {2-amino-2-[4-(pyridin-4-ylcarbamoyl)-phenyl]-ethyl}-amide] fall in the same range of IC50: 0.05 to 0.5 µM for the first, 0.05 to 0.5 µM for the second.

First: NC(CNC(=O)C1CCc2cc(Cl)ccc21)c1ccc(C(=O)Nc2ccncc2)cc1 (stereo not drawn) [Compound 352, 5-Chloro-indan-1-carboxylic acid {2-amino-2-[4-(pyridin-4-ylcarbamoyl)-phenyl]-ethyl}-amide]
Second: NC(CNC(=O)C1CCc2ccc(F)cc21)c1ccc(C(=O)Nc2ccncc2)cc1 (stereo not drawn) [Compound 354, 6-Fluoro-indan-1-carboxylic acid {2-amino-2-[4-(pyridin-4-ylcarbamoyl)-phenyl]-ethyl}-amide]
The IC50 of the first is lower: < 0.05 µM for the first, 0.05 to 0.5 µM for the second.

For `CC(C)(C(=O)NCC(N)c1ccc(C(=O)Nc2ccncc2)cc1)c1ccc(F)c(F)c1` (stereo not drawn) [Compound 376, 4-{1-Amino-2-[2-(3,4-difluoro-phenyl)-2-methyl-propionylamino]-ethyl}-N-pyridin-4-yl-benzamide], the IC50 was < 0.05 µM.

Same assay, conditions: compounds of Formula XIV, Table 3; read-out: IC50 μM PKCε

“4-[1-Amino-2-(5-fluoro- indan-1-ylcarbamoyl)-ethyl]- N-pyridin-4-yl-benzamide [Compound 361]” and “4-[1-Amino-2-(6-fluoro- indan-1-ylcarbamoyl)-ethyl]- N-pyridin-4-yl-benzamide [Compound 362]” fall in the same range of IC50: 0.05 to 0.5 µM for the first, 0.05 to 0.5 µM for the second.

`NC(CC(=O)NC1CCOc2ccccc21)c1ccc(C(=O)Nc2ccncc2)cc1` (stereo not drawn) [Compound 359, 4-[1-Amino-2-(chroman-4-ylcarbamoyl)-ethyl]-N-pyridin-4-yl-benzamide] and `NC(CC(=O)NC1CCSc2ccccc21)c1ccc(C(=O)Nc2ccncc2)cc1` (stereo not drawn) [Compound 360, 4-[1-Amino-2-(thiochroman-4-ylcarbamoyl)-ethyl]-N-pyridin-4-yl-benzamide] fall in the same range of IC50: 0.05 to 0.5 µM for the first, 0.05 to 0.5 µM for the second.

`NC(CC(=O)NC1COc2ccccc21)c1ccc(C(=O)Nc2ccncc2)cc1` (stereo not drawn) [Compound 366, 4-[1-Amino-2-(2,3-dihydro-benzofuran-3-ylcarbamoyl)-ethyl]-N-pyridin-4-yl-benzamide] and `NC(CC(=O)NC1CCCc2sccc21)c1ccc(C(=O)Nc2ccncc2)cc1` (stereo not drawn) [Compound 367, 4-[1-Amino-2-(4,5,6,7-tetrahydro-benzo[b]thiophen-4-ylcarbamoyl)-ethyl]-N-pyridin-4-yl-benzamide] fall in the same range of IC50: 0.05 to 0.5 µM for the first, 0.05 to 0.5 µM for the second.

Compared with `NC(CC(=O)NC(c1ccc(Cl)cc1)C1CC1)c1ccc(C(=O)Nc2ccncc2)cc1` (stereo not drawn) [Compound 368, 4-(1-Amino-2-{[(4-chloro-phenyl)-cyclopropyl-methyl]-carbamoyl}-ethyl)-N-pyridin-4-yl-benzamide], `NC(CC(=O)NC(c1ccc(F)cc1)C1CCC1)c1ccc(C(=O)Nc2ccncc2)cc1` (stereo not drawn) [Compound 369, 4-(1-Amino-2-{[cyclobutyl-(4-fluoro-phenyl)-methyl]-carbamoyl}-ethyl)-N-pyridin-4-yl-benzamide] is lower in IC50: 0.5 to 5 µM for the first, 0.05 to 0.5 µM for the second. The second is the more potent here.
